# Reference: patent US11285208B2, “Therapeutic agents for pancreatic cancer” (NATIONAL CANCER CENTER, priority 2010, dated 2022)
# Where a name gives a salt, the structure may show the parent alone.
# What was measured:
# [1] = system: progressive/metastatic pancreatic cancer; test: Clinical performance of gemcitabine hydrochloride monotherapy in progressive/metastatic pancreatic cancer patients; type: in vivo, human
# Description: Thus, the tumor reducing effect and ascites eliminating effect observed in one case of combination therapy were not observed with monotherapy.
# pancreatic cancer = settings: first-line therapy, foreign phase III clinical trials; cited from earlier work
compound,measurement,setting,value
Nc1ccn([C@@H]2O[C@H](CO)[C@@H](O)C2(F)F)c(=O)n1 [gemcitabine hydrochloride],Average change in tumor size (increase),"[1]; 3 months after the start of monotherapy, 25 analyzable cases, 95% confidence interval 4.6-67.4%",36.0%
same,Ascites elimination,"[1]; during the monotherapy of 3 months, 29 analyzable cases",ascites was not eliminated
same,Efficacy in symptom palliation,pancreatic cancer,23.8%
same,Median survival time,pancreatic cancer,5.7 months
same,One-year survival rate,pancreatic cancer,18%
